Molecules are shown by their SMILES. pIC50: −log10 of the molar value.

The experiment deals with T1, human oxytocin receptor (Homo sapiens, UniProt P30559).
T1 construct: host or cells: CHO cells (pcDNA3.1 vector)
T1 sequence (P30559 1-389): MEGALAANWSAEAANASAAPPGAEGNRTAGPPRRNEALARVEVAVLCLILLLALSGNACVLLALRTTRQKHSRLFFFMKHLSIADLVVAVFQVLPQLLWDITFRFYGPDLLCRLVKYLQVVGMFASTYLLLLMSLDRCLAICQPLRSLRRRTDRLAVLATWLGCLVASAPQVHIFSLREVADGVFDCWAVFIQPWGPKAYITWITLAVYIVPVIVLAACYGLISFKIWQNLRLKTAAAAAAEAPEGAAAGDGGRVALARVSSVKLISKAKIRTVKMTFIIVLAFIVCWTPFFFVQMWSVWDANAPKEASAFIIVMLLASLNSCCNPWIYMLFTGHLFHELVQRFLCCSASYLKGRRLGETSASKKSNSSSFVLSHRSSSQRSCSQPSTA
The experiment can be described thus: Oxytocin binding in Chinese Hamster Ovary cell membranes expressing human oxytocin receptors. The note with it: CHO cell membranes, [3H]oxytocin; for pIC50: values in parentheses, read-out: OT (IC50); for inhibition at 0.1 µM: 100 nM, values without parentheses, read-out: OT % inhibition @ 100% nM.

On to `COc1ccccc1-c1ccc(C(=O)N2Cc3ccc(C(=O)N4CCN(CCCN(C)C)CC4)n3Cc3ccccc32)cc1C` [Example 245, {4-[3-(Dimethylamino)propyl]-1-piperazinyl}{10-[(2′-methoxy-2-methyl[1,1′-biphenyl]-4-yl)carbonyl]-10,11-dihydro-5H-pyrrolo[2,1-c][1,4]benzodiazepin-3-yl}methanone], for which the pIC50 is 7.77. Consider `Cc1cc(C(=O)N2Cc3ccc(C(=O)N(C)CCCN(C)C)n3Cc3ccccc32)ccc1-c1ccccc1C(F)(F)F` [Example 97, N-[3-(Dimethylamino)propyl]-N-methyl-10-{[2-methyl-2′-(trifluoromethyl)[1,1′-biphenyl]-4-yl]carbonyl}-10,11-dihydro-5H-pyrrolo[2,1-c][1,4]benzodiazepine-3-carboxamide], for which the negative logarithm of the IC50 (pIC50) was 8.15.

In the case of `COc1cccc(-c2ccc(C(=O)N3Cc4ccc(C(=O)N5CCC[C@H]5CN5CCCC5)n4Cc4ccccc43)cc2C)c1` [Example 263, {10-[(3′-Methoxy-2-methyl[1,1′-biphenyl]-4-yl)carbonyl]-10,11-dihydro-5H-pyrrolo[2,1-c][1,4]benzodiazepin-3-yl}[(2S)-2-(1-pyrrolidinylmethyl)pyrrolidinyl]methanone], the pIC50 is 8.64. Regarding `COc1cc(C(=O)N2Cc3ccc(C(=O)NCCCN(C)C)n3Cc3ccccc32)ccc1-c1cccc2ccccc12` [Example 80, N-[3-(Dimethylamino)propyl]-10-[3-methoxy-4-(1-naphthyl)benzoyl]-10,11-dihydro-5H-pyrrolo[2,1-c][1,4]benzodiazepine-3-carboxamide], the inhibition at 0.1 µM stood at 44%. On to `COc1cccc(-c2ccc(C(=O)N3Cc4ccc(C(=O)N(C)CCN(C)C)n4Cc4ccccc43)cc2OC)c1` [Example 95, 10-[(2,3′-Dimethoxy[1,1′-biphenyl]-4-yl)carbonyl]-N-[2-(dimethylamino)ethyl]-N-methyl-10,11-dihydro-5H-pyrrolo[2,1-c][1,4]benzodiazepine-3-carboxamide], for which the inhibition at 0.1 µM turned out to be 97%.

For `COc1cc(-c2ccccc2Cl)c(Cl)cc1C(=O)N1Cc2ccc(C(=O)N(C)C3CCN(C)CC3)n2Cc2ccccc21` [Example 43, 10-[(2′-Chloro-6-chloro-3-methoxy-[1,1′-biphenyl]-4-yl)carbonyl]-N-methyl-N-(1-methylpiperidin-4-yl)-10,11-dihydro-5H-pyrrolo[2,1-c][1,4]benzodiazepine-3-carboxamide], the pIC50 is 8.78. Same read-out and setting: with `C=CCN1CCN(C(=O)c2ccc3n2Cc2ccccc2N(C(=O)c2ccc(-c4ccccc4C)c(C)c2)C3)CC1` [Example 220, (4-Allyl-1-piperazinyl){10-[(2,2′-dimethyl[1,1′-biphenyl]-4-yl)carbonyl]-10,11-dihydro-5H -pyrrolo[2,1-c][1,4]benzodiazepin-3-yl}methanone] the figure was 8.14.

With `COc1cc(C(=O)N2Cc3ccc(C(=O)N(C)CCN(C)C)n3Cc3ccccc32)ccc1-c1cccc2ccccc12` [Example 93, N-[2-(Dimethylamino)ethyl]-10-[3-methoxy-4-(1-naphthyl)benzoyl]-N-methyl-10,11-dihydro-5H-pyrrolo[2,1-c][1,4]benzodiazepine-3-carboxamide], the inhibition at 0.1 µM amounted to 90%. Turning to `COc1cc(-c2ccccc2F)c(Cl)cc1C(=O)N1Cc2cccn2Cc2ccccc21` [Example 18B, 10-{[6-Chloro-3-methoxy-2′-fluoro-[1,1′-biphenyl]-4-yl]carbonyl}-10,11-dihydro-5H-pyrrolo[2,1-c][1,4]benzodiazepine], the pIC50 was 7.84.

`Cc1cc(C(=O)N2Cc3ccc(C(=O)NC(=N)N)n3Cc3ccccc32)ccc1-c1ccccc1C(F)(F)F` [Example 8, N-[(10-{[2-methyl-2′-(trifluoromethyl)[1,1′-biphenyl]-4-yl]carbonyl}-10,11-dihydro-5H-pyrrolo[2,1-c][1,4]benzodiazepin-3-yl)carbonyl]guanidine]: the negative-log IC50 (pIC50) was 8.20.

Take `COc1cc(-c2ccccc2C)c(Cl)cc1C(=O)N1Cc2ccc(C(=O)N(C)CCCN(C)C)n2Cc2ccccc21` [Example 98, 10-[(6-Chloro-3-methoxy-2′-methyl[1,1′-biphenyl]-4-yl)carbonyl]-N-[3-(dimethylamino)propyl]-N-methyl-10,11-dihydro-5H-pyrrolo[2,1-c][1,4]benzodiazepine-3-carboxamide]: the pIC50 was 8.61. Turning to `Cc1cc(C(=O)N2Cc3ccc(C(=O)N4CCN(CCN(C)C)CC4)n3Cc3ccccc32)ccc1-c1ccccc1C(F)(F)F` [Example 196, {4-[2-(Dimethylamino)ethyl]-1-piperazinyl}(10-{[2-methyl-2′-(trifluoromethyl)[1,1′-biphenyl]-4-yl]carbonyl}-10,11-dihydro-5H-pyrrolo[2,1-c][1,4]benzodiazepin-3-yl)methanone], the negative-log IC50 (pIC50) is 7.93. Still for that read-out and setting: the value for `Cc1cc(C(=O)N2Cc3ccc(C(=O)N4CCN(C)CC4)n3Cc3ccccc32)ccc1-c1ccccc1C(F)(F)F` [Example 2, (4-Methyl-piperazin-1-yl)-[10-(2-methyl-2′-trifluoromethyl-[1,1′-biphenyl]-4-yl)-carbonyl]-10,11-dihydro-5H-pyrrolo[2,1-c][1,4]benzodiazepin-3-yl-methanone] was 7.90; that for `COc1cccc(-c2ccc(C(=O)N3Cc4ccc(C(=O)N5CC[C@@H](N(C)C)C5)n4Cc4ccccc43)cc2C)c1` [Example 278, [(3R)-3-(Dimethylamino)pyrrolidinyl]{10-[(3′-methoxy-2-methyl[1,1′-biphenyl]-4-yl)carbonyl]-10,11-dihydro-5H-pyrrolo[2,1-c][1,4]benzodiazepin-3-yl}methanone] was 8.10.

Take `COc1ccccc1-c1ccc(C(=O)N2Cc3ccc(C(=O)N(C)CCN(C)C)n3Cc3ccccc32)cc1OC` [Example 94, 10-[(2,2′-Dimethoxy[1,1′-biphenyl]-4-yl)carbonyl]-N-[2-(dimethylamino)ethyl]-N-methyl-10,11-dihydro-5H-pyrrolo[2,1-c][1,4]benzodiazepine-3-carboxamide]: the inhibition at 0.1 µM came out at 94%. On to `C=CCN1CCN(C(=O)c2ccc3n2Cc2ccccc2N(C(=O)c2cc(Cl)c(-c4ccccc4C)cc2OC)C3)CC1` [Example 219, (4-Allyl-1-piperazinyl){10-[(6-chloro-3-methoxy-2′-methyl[1,1′-biphenyl]-4-yl)carbonyl]-10,11-dihydro-5H-pyrrolo[2,1-c][1,4]benzodiazepin-3-yl}methanone], for which the pIC50 was 7.92.

With `COc1ccccc1-c1ccc(C(=O)N2Cc3ccc(C(=O)NCCCN(C)C)n3Cc3ccccc32)cc1OC` [Example 81, 10-[(2,2′-Dimethoxy[1,1′-biphenyl]-4-yl)carbonyl]-N-[3-(dimethylamino)propyl]-10,11-dihydro-5H-pyrrolo[2,1-c][1,4]benzodiazepine-3-carboxamide], the inhibition at 0.1 µM stood at 43%. `COc1ccccc1-c1ccc(C(=O)N2Cc3ccc(C(=O)N4CCN(CCN(C)C)CC4)n3Cc3ccccc32)cc1C` [Example 195, {4-[2-(Dimethylamino)ethyl]-1-piperazinyl}{10-[(2′-methoxy-2-methyl[1,1′-biphenyl]-4-yl)carbonyl]-10,11-dihydro-5H-pyrrolo[2,1-c][1,4]benzodiazepin-3-yl}methanone]: the pIC50 is 8.42. The same measure, in the same setting: the value for `COc1cc(-c2ccccc2C)c(Cl)cc1C(=O)N1Cc2ccc(C(=O)N3CCCN(C)CC3)n2Cc2ccccc21` [Example 60, {10-[(6-Chloro-3-methoxy-2′-methyl[1,1′-biphenyl]-4-yl)carbonyl]-10,11-dihydro-5H-pyrrolo[2,1-c][1,4]benzodiazepin-3-yl}(4-methyl-1,4-diazepan-1-yl)methanone] was 8.27. On the same count and under the same terms, with `C=CCN1CCN(C(=O)c2ccc3n2Cc2ccccc2N(C(=O)c2ccc(-c4ccccc4OC)cc2)C3)CC1` [Example 221, (4-Allyl-1-piperazinyl){10-[(2′-methoxy[1,1′-biphenyl]4-yl)carbonyl]-10,11-dihydro-5H -pyrrolo[2,1-c][1,4]benzodiazepin-3-yl}methanone] the figure was 7.95; with `COc1cc(-c2ccccc2C)c(Cl)cc1C(=O)N1Cc2ccc(C(=O)N3CCC(N4CCCCC4)CC3)n2Cc2ccccc21` [Example 110, {10-[(6-Chloro-3-methoxy-2′-methyl[1,1′-biphenyl]-4-yl)carbonyl]-10,11-dihydro-5H-pyrrolo[2,1-c][1,4]benzodiazepin-3-yl}[4-(1-piperidinyl)-1-piperidinyl]methanone], 8.10; with `COc1cc(-c2ccccc2C)c(Cl)cc1C(=O)N1Cc2ccc(C(=O)N3CCC(N4CCCC4)CC3)n2Cc2ccccc21` [Example 136, {10-[(6-Chloro-3-methoxy-2′-methyl[1,1′-biphenyl]-4-yl)carbonyl]-10,11-dihydro-5H-pyrrolo[2,1-c][1,4]benzodiazepin-3-yl}[4-(1-pyrrolidinyl)-1-piperidinyl]methanone], 8.14. As for `COc1cccc(-c2cc(OC)c(C(=O)N3Cc4ccc(C(=O)N(C)CCN(C)C)n4Cc4ccccc43)cc2Cl)c1` [Example 87, 10-[(6-Chloro-3,3′-dimethoxy[1,1′-biphenyl]-4-yl)carbonyl]-N-[2-(dimethylamino)ethyl]-N-methyl-10,11-dihydro-5H-pyrrolo[2,1-c][1,4]benzodiazepine-3-carboxamide], the negative-log IC50 (pIC50) is 8.33.

With `Cc1cc(C(=O)N2Cc3ccc(C(=O)N(C)CCN(C)C)n3Cc3ccccc32)ccc1-c1ccccc1C(F)(F)F` [Example 85, N-[2-(Dimethylamino)ethyl]-N-methyl-10-{[2-methyl-2′-(trifluoromethyl)[1,1′-biphenyl]-4-yl]carbonyl}-10,11-dihydro-5H-pyrrolo[2,1-c][1,4]benzodiazepine-3-carboxamide], the negative-log IC50 (pIC50) is 8.52.

Usually pIC50 stands for the IC50 on a negative log10 scale, so that one unit is a factor of ten. Broadly, the inhibition is the percentage by which the read-out fell short of the control.

(Values after patent publication US7109193B2, “Tricyclic diazepines tocolytic oxytocin receptor antagonists” (Wyeth, priority 2001, dated 2006).)
